# Experimental data as given in paper PMC9632963, “Preclinical characterization and phase I clinical trial of CT053PTSA targets MET, AXL, and VEGFR2 in patients with advanced solid tumors” (Frontiers in Immunology, 2022).
# Test system: patients with advanced solid tumors
# Test: Phase I trial: safety, tolerability, DLT, MTD (CTCAE v4.0)
# Type: in vivo
# Text: Eligible patients had at least one measurable lesion per RECIST v 1.1, Eastern Cooperative Oncology Group (ECOG) performance status of 0 or 1, and adequate hematological, renal, cardiac and hepatic functions. The primary objectives were to assess safety and tolerability as well as to determine the MTD, DLT, and dose recommended for further study. The secondary objectives were to assess the PK and preliminary efficacy of CT053PTSA.
# An initial accelerated titration design was used in the 15 and 30 mg QD cohorts, and the “3+3” schema was used starting in the 60 mg QD cohort. […] The study protocol was approved by an institutional review board at Sun Yat-sen University Cancer Center. Written informed consent was obtained from all the patients before enrollment.
# Descriptive statistics of safety are presented per CTCAE v4.0. Subjects who received at least one dose of CT053PTSA were considered eligible to be evaluated and included in safety analyses. […] According to the RECIST 1.1 criteria, imaging examinations were performed at each specified time point in the protocol. The antitumor activity was measured by RECIST1.1.
compound,measurement,setting,value
Cc1c(C(=O)Nc2ccc(Oc3ccnc4cc(OCC(C)(C)O)ccc34)c(F)c2)c(=O)n(-c2ccccc2)n1C [CT053PTSA],"Blood sodium decreased, ≥ G3",100mg (n = 7),0 n (%)
same,"Blood uric acid increased, All",100mg (n = 7),0 n (%)
same,"Blood uric acid increased, ≥ G3",100mg (n = 7),0 n (%)
same,"Decreased appetite, All",100mg (n = 7),2 (28.6) n (%)
same,"Decreased appetite, ≥ G3",100mg (n = 7),0 n (%)
same,"Diarrhea, All",100mg (n = 7),1 (14.3) n (%)
same,"Diarrhea, ≥ G3",100mg (n = 7),0 n (%)
same,"Dizziness, All",100mg (n = 7),1 (14.3) n (%)
same,"Dizziness, ≥ G3",100mg (n = 7),0 n (%)
same,"Dry mouth, All",100mg (n = 7),1 (14.3) n (%)
same,"Dry mouth, ≥ G3",100mg (n = 7),0 n (%)
same,"Electrocardiogram QT prolonged, All",100mg (n = 7),1 (14.3) n (%)
same,"Electrocardiogram QT prolonged, ≥ G3",100mg (n = 7),0 n (%)
same,"Electrolyte imbalance, All",100mg (n = 7),0 n (%)
same,"Electrolyte imbalance, ≥ G3",100mg (n = 7),0 n (%)
same,"Hemoglobin decreased, All",100mg (n = 7),0 n (%)
same,"Hemoglobin decreased, ≥ G3",100mg (n = 7),0 n (%)
same,"Hypertension, All",100mg (n = 7),2 (28.6) n (%)
same,"Hypertension, ≥ G3",100mg (n = 7),0 n (%)
same,"Hyponatremia, All",100mg (n = 7),1 (14.3) n (%)
same,"Hyponatremia, ≥ G3",100mg (n = 7),0 n (%)
same,"Hypoparathyroidism, All",100mg (n = 7),0 n (%)
same,"Hypoparathyroidism, ≥ G3",100mg (n = 7),0 n (%)
same,"Mouth ulceration, All",100mg (n = 7),0 n (%)
same,"Mouth ulceration, ≥ G3",100mg (n = 7),0 n (%)
same,"Nausea, All",100mg (n = 7),1 (14.3) n (%)
same,"Nausea, ≥ G3",100mg (n = 7),0 n (%)
same,"Oropharyngeal pain, All",100mg (n = 7),1 (14.3) n (%)
same,"Oropharyngeal pain, ≥ G3",100mg (n = 7),0 n (%)
same,"Pain, All",100mg (n = 7),1 (14.3) n (%)
same,"Pain, ≥ G3",100mg (n = 7),0 n (%)
same,"Palmar-plantar erythrodysaesthesia syndrome, All",100mg (n = 7),1 (14.3) n (%)
same,"Palmar-plantar erythrodysaesthesia syndrome, ≥ G3",100mg (n = 7),0 n (%)
same,"Platelet count decreased, All",100mg (n = 7),4 (57.1) n (%)
same,"Platelet count decreased, ≥ G3",100mg (n = 7),1 (14.3) n (%)
same,"Proteinuria, All",100mg (n = 7),1 (14.3) n (%)
same,"Proteinuria, ≥ G3",100mg (n = 7),0 n (%)
same,"Pyrexia, All",100mg (n = 7),0 n (%)
same,"Pyrexia, ≥ G3",100mg (n = 7),0 n (%)
same,"Sinus bradycardia, All",100mg (n = 7),0 n (%)
same,"Sinus bradycardia, ≥ G3",100mg (n = 7),0 n (%)
same,"Stomatitis, All",100mg (n = 7),1 (14.3) n (%)
same,"Stomatitis, ≥ G3",100mg (n = 7),0 n (%)
same,"Vomiting, All",100mg (n = 7),0 n (%)
same,"Vomiting, ≥ G3",100mg (n = 7),0 n (%)
same,"leukopenia, All",100mg (n = 7),4 (57.1) n (%)
same,"leukopenia, ≥ G3",100mg (n = 7),0 n (%)
same,"neutropenia, All",100mg (n = 7),4 (57.1) n (%)
same,"neutropenia, ≥ G3",100mg (n = 7),0 n (%)
same,"transaminase elevation, All",100mg (n = 7),6 (85.7) n (%)
same,"transaminase elevation, ≥ G3",100mg (n = 7),1 (14.3) n (%)
same,patients with DLT / patients eligible for DLT assessment,100 mg QD,1/6 and one out of six
same,"Anaemia, All",150mg (n = 5),0 n (%)
same,"Anaemia, ≥ G3",150mg (n = 5),0 n (%)
same,"Blood chloride decreased, All",150mg (n = 5),0 n (%)
same,"Blood chloride decreased, ≥ G3",150mg (n = 5),0 n (%)
same,"Blood creatinine increased, All",150mg (n = 5),1 (20) n (%)
same,"Blood creatinine increased, ≥ G3",150mg (n = 5),0 n (%)
same,"Blood potassium decreased, All",150mg (n = 5),1 (20) n (%)
same,"Blood potassium decreased, ≥ G3",150mg (n = 5),0 n (%)
same,"Blood sodium decreased, All",150mg (n = 5),1 (20) n (%)
same,"Blood sodium decreased, ≥ G3",150mg (n = 5),1 (20) n (%)
same,"Blood uric acid increased, All",150mg (n = 5),1 (20) n (%)
same,"Blood uric acid increased, ≥ G3",150mg (n = 5),0 n (%)
same,"Decreased appetite, All",150mg (n = 5),3 (60) n (%)
same,"Decreased appetite, ≥ G3",150mg (n = 5),1 (20) n (%)
same,"Diarrhea, All",150mg (n = 5),1 (20) n (%)
same,"Diarrhea, ≥ G3",150mg (n = 5),0 n (%)
same,"Dizziness, All",150mg (n = 5),0 n (%)
same,"Dizziness, ≥ G3",150mg (n = 5),0 n (%)
same,"Dry mouth, All",150mg (n = 5),0 n (%)
same,"Dry mouth, ≥ G3",150mg (n = 5),0 n (%)
same,"Electrocardiogram QT prolonged, All",150mg (n = 5),1 (20) n (%)
same,"Electrocardiogram QT prolonged, ≥ G3",150mg (n = 5),0 n (%)
same,"Electrolyte imbalance, All",150mg (n = 5),1 (20) n (%)
same,"Electrolyte imbalance, ≥ G3",150mg (n = 5),0 n (%)
same,"Hemoglobin decreased, All",150mg (n = 5),1 (20) n (%)
same,"Hemoglobin decreased, ≥ G3",150mg (n = 5),0 n (%)
same,"Hypertension, All",150mg (n = 5),2 (40) n (%)
same,"Hypertension, ≥ G3",150mg (n = 5),1 (20) n (%)
same,"Hyponatremia, All",150mg (n = 5),0 n (%)
same,"Hyponatremia, ≥ G3",150mg (n = 5),0 n (%)
same,"Hypoparathyroidism, All",150mg (n = 5),1 (20) n (%)
same,"Hypoparathyroidism, ≥ G3",150mg (n = 5),0 n (%)
same,"Mouth ulceration, All",150mg (n = 5),1 (20) n (%)
same,"Mouth ulceration, ≥ G3",150mg (n = 5),0 n (%)
same,"Nausea, All",150mg (n = 5),1 (20) n (%)
same,"Nausea, ≥ G3",150mg (n = 5),0 n (%)
same,"Oropharyngeal pain, All",150mg (n = 5),0 n (%)
same,"Oropharyngeal pain, ≥ G3",150mg (n = 5),0 n (%)
same,"Pain, All",150mg (n = 5),0 n (%)
same,"Pain, ≥ G3",150mg (n = 5),0 n (%)
same,"Palmar-plantar erythrodysaesthesia syndrome, All",150mg (n = 5),0 n (%)
same,"Palmar-plantar erythrodysaesthesia syndrome, ≥ G3",150mg (n = 5),0 n (%)
same,"Platelet count decreased, All",150mg (n = 5),1 (20) n (%)
